# Laboratory results reported in paper PMC10866072, “Design, synthesis, molecular modelling and biological evaluation of novel 6-amino-5-cyano-2-thiopyrimidine derivatives as potent anticancer agents against leukemia and apoptotic inducers” (Journal of Enzyme Inhibition and Medicinal Chemistry, 2024).
# Like-named read-outs stand apart in the source and are kept apart here.
# How the values were obtained:
# MDA-MB-468 = assay type: cell-based
# [1] = test system: Ovarian cancer cell lines; experiment: NCI-60 five-dose, subpanel
# Source text: (§2) A measure of a compound’s selectivity for a given cell line is the ratio created by dividing the full panel mean graph midpoints (MG-MID) concentration by the individual subpanel MG-MID concentrations (obtained as the average sensitivity of all the cell lines in a given subpanel to the test compound).
# (§3) Assessment of selectivity of a compound depends on the ratio obtained by dividing the full panel MID ^a by their individual subpanel MID ^b (µM) where MID^a is the average sensitivity of all cell lines towards the test agent (µM).
# COLO 205 = assay type: cell-based
# 786-0 = assay type: cell-based
# MOLT-4 = assay type: cell-based
# [2] = test system: Non-small cell lung cancer cell lines; experiment: NCI-60 five-dose, subpanel
# Source text: (§4) Furthermore, the average sensitivity of all cell lines to the compound is termed as the full panel mean graph midpoints (MG-MID). The complete panel mean graph midpoints refers to the average sensitivity of all cell lines to the chemical (MG-MID). A measure of a compound’s selectivity for a given cell line is the ratio created by dividing the full panel mean graph midpoints (MG-MID) concentration by the individual subpanel MG-MID concentrations (obtained as the average sensitivity of all the cell lines in a given subpanel to the test compound).
# as §3
# UACC-257 = assay type: cell-based
# CAKI-1 = assay type: cell-based
# SK-MEL-28 = assay type: cell-based
# Colon cancer cell lines = experiment: NCI-60 five-dose, subpanel
# Source text: as §4, §3
# NCI-H522 = assay type: cell-based
# melanoma cell lines = experiment: NCI-60 five-dose, subpanel
# Source text: as §4, §3
# OVCAR-8 = assay type: cell-based
# HOP-92 = assay type: cell-based
# leukaemia cell lines = experiment: NCI-60 five-dose, subpanel
# Source text: as §4, §3
# A549/ATCC = assay type: cell-based
# [3] = test system: Prostate cancer cell lines; experiment: NCI-60 five-dose, subpanel
# Source text: as §2, §3
# RPMI-8226 = assay type: cell-based
# MDA-MB-435 = assay type: cell-based
# A498 = assay type: cell-based
# [4] = test system: Bax protein in HL60 cells; experiment: Western blot; assay type: cell-based, human
# Method: (§1) To assess the effect of compound 1c on protein expression of apoptotic and anti-apoptotic proteins levels, western blotting for selected candidate genes were performed[96]^,[97].Briefly, equal amounts (20 µg) of protein samples were mixed and boiled with SDS Loading buffer for 10 min, allowed to cool on ice and then loaded into SDS-polyacrylamide gel and separated by Cleaver electrophoresis unit (Cleaver, UK), transferred onto polyvinylidene fluoride (PVDF) membranes (BioRad) for 30 min using a Semi-dry Electro blotter (Biorad, USA) at 2.5 A and 25 V for 30 min. Additionally, the membrane was blocked by 5% non-fat dry milk solution in TBS-T for two hours at RT, in order to reduce non-specific protein interactions between the membrane and the antibody. Furthermore, the membrane was incubated overnight at 4 °C with primary antibodies, anti B-actin (Sigma ®), anti-Bax, anti-Bcl2, and anti-P53 (Abcam ®). The blots were then washed for three times (10 min each) with TBS-T. Finally, the membrane was incubated with the corresponding horse radish peroxidase (HRP)- linked secondary antibodies (Dako) for another hour at room temperature, followed by washing for three times (10 min each) with TBS-T. Then, the chemiluminescent reagent (ECL) was added according to the kit instructions and signals were detected by a CCD camera-based imager (Chemi Doc imager, Biorad, USA), and the bands intensities were measured by ImageLab (Biorad).
# [5] = test system: Bcl2 protein in leukaemia SR cells; experiment: Western blot; assay type: cell-based, human
# Method: as §1
# [6] = test system: P53 protein in HL60 cells; experiment: Western blot; assay type: cell-based, human
# Method: as §1
# [7] = test system: Bax protein in leukaemia SR cells; experiment: Western blot; assay type: cell-based, human
# Method: as §1
# [8] = test system: Bcl2 protein in HL60 cells; experiment: Western blot; assay type: cell-based, human
# Method: as §1
# [9] = Homo sapiens, five-dose, read-out: LC50 (the source's name)
# [10] = Homo sapiens, one dose 10^-5 M, 48 h
# [11] = Homo sapiens, read-out: GI50 Subpanel MID^b
# [12] = Homo sapiens, one dose 10^-5 M, 48 h, read-out: % growth
smiles,measurement,setting,value
"N#Cc1c(N)nc(S)nc1-c1ccc(Cl)cc1Cl [Compound 1c, 4-Amino-6–(2,4-dichlorophenyl)-2-mercaptopyrimidine-5-carbonitrile]",GI50,"MDA-MB-468; Homo sapiens, five-dose",11.4 µM
same,CC50,MDA-MB-468; [9],55.7 µM
same,percent cell growth at 10 µM,MDA-MB-468; [10],35%
same,TGI,MDA-MB-468; five-dose,25.20 µM
same,GI50,[1]; [11],19.2 µM
same,"Selectivity ratio (full panel MID^a / subpanel MID^b, GI50 level)",[1]; ovarian cancer,0.7
same,GI50,"COLO 205; Homo sapiens, five-dose",19 µM
same,CC50,COLO 205; [9],70 µM
same,% growth at 10 µM,COLO 205; [10],80.5%
same,TGI,COLO 205; five-dose,36.50 µM
same,GI50,"786-0; Homo sapiens, five-dose",17.5 µM
same,CC50,786-0; [9],99.1 µM
same,% growth at 10 µM,786-0; [10],67%
same,TGI,786-0; five-dose,41.60 µM
same,GI50,"MOLT-4; Homo sapiens, five-dose",700 nM
same,CC50,MOLT-4; [9],> 100 µM
same,activity at 10 µM,MOLT-4; [12],6.11%
same,TGI,MOLT-4; five-dose,43.90 µM
same,GI50,[2]; [11],18.1 µM
same,"Selectivity ratio (full panel MID^a / subpanel MID^b, GI50 level)",[2]; non-small cell lung cancer,0.7
same,GI50,"UACC-257; Homo sapiens, five-dose",14.7 µM
same,CC50,UACC-257; [9],67.2 µM
same,percent cell growth at 10 µM,UACC-257; [10],77.7%
same,TGI,UACC-257; five-dose,31.50 µM
same,% growth at 10 µM,"CAKI-1; Homo sapiens, CAKI-1, 48 h, one dose 10^-5 M, 48 h",72.3%
same,GI50,"CAKI-1; Homo sapiens, five-dose",18.4 µM
same,CC50,CAKI-1; [9],> 100 µM
same,TGI,CAKI-1; five-dose,45.70 µM
same,GI50,"SK-MEL-28; Homo sapiens, five-dose",15.2 µM
same,CC50,SK-MEL-28; [9],60.7 µM
same,% cell growth at 10 µM,SK-MEL-28; [10],57.7%
same,TGI,SK-MEL-28; five-dose,30.40 µM
same,GI50,Colon cancer cell lines; [11],10.9 µM
same,"Selectivity ratio (full panel MID^a / subpanel MID^b, GI50 level)",Colon cancer cell lines; colon cancer,1.2
same,GI50,"NCI-H522; Homo sapiens, five-dose",15.4 µM
same,CC50,NCI-H522; [9],61.3 µM
same,% growth at 10 µM,NCI-H522; [10],49.4%
same,TGI,NCI-H522; five-dose,30.70 µM
same,GI50,melanoma cell lines; [11],10.7 µM
same,"Selectivity ratio (full panel MID^a / subpanel MID^b, GI50 level)",melanoma cell lines; melanoma,1.2
same,GI50,"OVCAR-8; Homo sapiens, five-dose",21.8 µM
same,CC50,OVCAR-8; [9],> 100 µM
same,% growth of cells at 10 µM,OVCAR-8; [10],5.74%
same,TGI,OVCAR-8; five-dose,74.70 µM
same,GI50,"HOP-92; Homo sapiens, five-dose",19.8 µM
same,LC50 (50% lethal concentration),"HOP-92; Homo sapiens, five-dose",> 100 µM
same,% growth at 10 µM,HOP-92; [10],105%
same,TGI,HOP-92; five-dose,56.40 µM
same,GI50,leukaemia cell lines; [11],330 nM
same,GI50,"leukaemia cell lines; Homo sapiens, read-out: GI50 range, leukaemia cell lines",80 to 700 nM
same,CC50,"leukaemia cell lines; Homo sapiens, read-out: LC50, leukaemia",> 100 µM
same,"Selectivity ratio (full panel MID^a / subpanel MID^b, GI50 level)",leukaemia cell lines; leukaemia,39
same,GI50,"A549/ATCC; Homo sapiens, five-dose",25.8 µM
same,LC50,"A549/ATCC; Homo sapiens, five-dose",> 100 µM
same,% growth at 10 µM,A549/ATCC; [10],90.1%
same,TGI,A549/ATCC; five-dose,77.40 µM
same,GI50,[3]; [11],13 µM
same,"Selectivity ratio (full panel MID^a / subpanel MID^b, GI50 level)",[3]; prostate cancer,0.99
same,GI50,"RPMI-8226; Homo sapiens, five-dose",600 nM
same,LC50,"RPMI-8226; Homo sapiens, five-dose",> 100 µM
same,% growth at 10 µM,RPMI-8226; [10],9.51%
same,TGI,RPMI-8226; five-dose,27.50 µM
same,GI50,"MDA-MB-435; Homo sapiens, five-dose",10.5 µM
same,CC50,MDA-MB-435; [9],> 100 µM
same,activity at 10 µM,MDA-MB-435; [12],25.3%
same,TGI,MDA-MB-435; five-dose,38.00 µM
same,GI50,"A498; Homo sapiens, five-dose",19.8 µM
same,LC50,"A498; Homo sapiens, five-dose",78.5 µM
same,% growth at 10 µM,A498; [10],137%
same,TGI,A498; five-dose,39.40 µM
same,Bax protein expression vs untreated control,[4],significantly increased the expression
same,Bcl2 protein expression vs untreated control,[5],significantly inhibited the expression
same,P53 protein expression vs untreated control,[6],increased the expression of P53 protein significantly
same,Bax protein expression vs untreated control,[7],significantly increased the expression
same,Bcl2 protein expression vs untreated control,[8],significantly inhibited the expression
